Measurements published in patent US10702518B2, “TAF1 inhibitors for the therapy of cancer” (CeMM—Forschungszentrum für Molekulare Medizin GmbH, priority 2016, dated 2020).
Entries after “also recorded” stand apart in the source; their conditions may differ. Values belong to the compound of their own block, whether it stands above or below them.

How the values were obtained:
[1] = target: T1, BRD4 (BD1) (Homo sapiens, UniProt O60885); assay: AlphaLISA, first bromodomain of BRD4; format: binding; conditions: 10 μM
T1 construct: AlphaLISA assays for the first (black columns, BD1) and the second (grey columns, BD2) bromodomains of BRD4
Description: (§4) The Amplified Luminescent Proximity Homogenous Assay (AlphaLISA©) is the homogenous and chemiluminescence-based method, used to explore the direct interaction of the identified small molecules with BRD4 and therefore, measure the IC50 values of the direct BRD4 inhibitors.
(§5) Briefly, in this assay, the biotinylated histone peptide substrate is captured by streptavidin-coupled donor beads. The GST-tagged bromodomain is recognized and bound by an anti-GST antibody conjugated with an acceptor bead. In absence of an inhibitor, the bromodomain binds to histone peptide substrate. […] The event of a signal (alpha count) can only take place when the interaction partners are in proximity (<200 nm).
(§6) The AlphaLISA was performed for both bromodomains of BRD4 using the BRD4 (BD1) Inhibitor Screening Kit (BPS Bioscience) and BRD4 (BD2) Inhibitor Screening Kit (BPS Bioscience) following the manufacturer's protocol. For the GST full length BRD4 purified from BL21 cells, a mixture of acetylated substrates from the BD1 and BD2 Inhibitor Screening Kit reported above was used.
(§7) Compounds were tested at a final assay concentration of 10 μM in duplicates. […] Reaction was initiated by adding one of the two bromodomains (BD1 or BD2) or the GST full length BRD4. […]

[2] = target: T2, BRD4 (BD2) (Homo sapiens, UniProt O60885); assay: AlphaLISA, second bromodomain of BRD4; format: binding; conditions: 10 μM
T2 construct: AlphaLISA assays for the first (black columns, BD1) and the second (grey columns, BD2) bromodomains of BRD4
Description: as §4, §5, §6, §7

[3] = target: T3, TAF1 (2) (Homo sapiens, UniProt P21675); assay: BromoScan / BromoELECT / BromoKdELECT, TAF1 (2); format: binding
T3 construct: the second bromodomain of TAF1 (TAF1 (2)); purchased DiscoverX Corporation (contract assay); host or cells: T7 phage in E. coli host derived from BL21
T3 sequence (P21675 1519-1628 limits assumed): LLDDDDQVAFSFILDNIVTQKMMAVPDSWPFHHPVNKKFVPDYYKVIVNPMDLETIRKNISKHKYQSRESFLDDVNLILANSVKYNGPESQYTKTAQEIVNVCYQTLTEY
Description: (§1) Bubbles indicate the percentage of inhibition of the binding of the analyzed bromodomains to an acetylated substrate. […] (g) BromoKdELECT assay for CeMMEC1 against TAF1 (2). […] (i) Docking of CeMMEC1 to the second bromodomain of TAF1. 3D model (top panel) and 2D ligand interaction diagram (bottom panel). Red dots in the 3D model indicate water molecules.
(§2) (c) not used (d) KinomeScan profile for CeMMEC1 (10 μM). Bubbles indicate the percentage of inhibition of the binding of the analyzed kinase to an immobilized ligand.

[4] = target: BRD4 (Homo sapiens, UniProt O60885); assay: BromoScan profile, BRD4; format: binding; conditions: 10 μM
Text: as §1

[5] = target: CREBBP (Homo sapiens, UniProt Q92793); assay: BromoScan / BromoELECT / BromoKdELECT, CREBBP; format: binding
Chain of CREBBP (Q92793 1085-1192 limits assumed): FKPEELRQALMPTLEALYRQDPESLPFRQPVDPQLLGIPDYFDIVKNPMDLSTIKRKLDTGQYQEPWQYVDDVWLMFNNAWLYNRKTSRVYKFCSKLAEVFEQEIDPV
Description: as §1, §2

[6] = target: T4, EP300 (Homo sapiens, UniProt Q09472); assay: BromoScan / BromoKdELECT, EP300; format: binding
T4 sequence (Q09472 1049-1156 limits assumed): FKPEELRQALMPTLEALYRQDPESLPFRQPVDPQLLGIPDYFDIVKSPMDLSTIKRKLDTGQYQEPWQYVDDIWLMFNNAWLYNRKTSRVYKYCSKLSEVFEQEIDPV
Description: as §1, §2

[7] = target: T5, BRD9 (Homo sapiens, UniProt Q9H8M2); assay: BromoScan / BromoKdELECT, BRD9; format: binding
T5 sequence (Q9H8M2 136-240 limits assumed): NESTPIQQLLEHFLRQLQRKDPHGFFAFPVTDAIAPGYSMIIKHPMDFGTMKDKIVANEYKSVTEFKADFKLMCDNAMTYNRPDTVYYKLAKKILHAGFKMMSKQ
Description: as §1, §2

[8] = test system: 97 representative kinases; assay: KinomeScan profile; format: binding; conditions: 10 μM; 97 kinases
Description: (§3) . The assay was done in duplicate (mean±STD); (b) BromoKdELECT assay for CeMMEC1 against TAF1 (2), BRD9, CREBBP and EP300 bromodomains (11 dilutions, from 10 to 0.017 μM). (c) not used (d) KinomeScan profile for CeMMEC1 (10 μM). Bubbles indicate the percentage of inhibition of the binding of the analyzed kinase to an immobilized ligand. (e) BromoELECT assay for CeMMEC1 and analogs A1, A2, 05, 10, 13, 24, 25, 26, 27, 29, 33 and 39 (10 μM) against BRD4 (1), BRD4 (2), BRD9, CREBBP, EP300 and TAF1 (2). (f, g) Docking poses of analog 30 to TAF1 (green) and BRD4 (magenta). (h) Docking of compound 29 to TAF1, no suitable pose could be identified for BRD4. (i) BromoELECT assay for analog 29 (10 μM) against BRD4 (1), BRD9, CREBBP, EP300 and TAF1 (2).

[9] = target: T6, TAF1 (Homo sapiens, UniProt P21675); assay: TAF1 binding assay (FRET/HTRF peptide displacement); conditions: FRET analysis, data not shown
T6 construct: TAF1 second bromodomain (Uniprot P21675, residues 1501-1634); made in house; host or cells: E. coli BL21 (DE3)-R3-pRARE2 (stated for the His-tagged construct)
T6 sequence (P21675 1501-1634): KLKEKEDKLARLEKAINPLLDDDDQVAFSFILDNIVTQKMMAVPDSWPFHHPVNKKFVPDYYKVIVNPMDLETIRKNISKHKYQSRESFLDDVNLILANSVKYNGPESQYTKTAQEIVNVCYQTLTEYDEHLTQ
Description: TAF1 binding assays were conducted using the EPIgeneous™ Binding Domain kit B (Cisbio Bioassays) according to manufacturer's instructions. Binding was determined by the displacement of an acetylated biotin-peptide from a GST tagged TAF1 protein using HTRF with a Eu3+ conjugated GST antibody donor and streptavidin conjugated acceptor. Compounds were dispensed into assay plates, ProxiPlate-384 Plus (Perkin Elmer) using an Echo 525 Liquid Handler (Labcyte). Binding assays were conducted in a final volume of 20 μl with 5 nM TAF1-GST, 50 nM peptide (SGRGK (ac)GGK (ac)GLGK (ac)GGAK (ac)RHRK (biotin)-acid), 6.25 nM Streptavidin-XL665, 1:200 Anti-GST-Eu3+ cryptate and 0.1% DMSO. Assay reagents were dispensed into plates using a Multidrop combi (Thermo Scientific) and incubated at room temperature for 3 hours. Fluorescence was measured using a PHERAstar microplate reader (BMG) using the HTRF module with dual emission protocol (A=ex. 320 nm em. 665 nm, B=ex. 320 nm em. 620 nm). Raw data were processed to give an HTRF ratio (channel A/B*10000), which was used to generate IC50 curves.

[10] = test system: REDS3 cells; assay: RFP reporter expression in REDS3 cells (live cell imaging); format: cell-based, human; conditions: for RFP expression in REDS3 cells: single agent
Description: Cells were seeded on clear flat bottom 96-well or 384-well plates (Corning) and treated with the indicated compounds for the specified conditions. Live cell imaging pictures were taken with the Operetta High Content Screening System (PerkinElmer), 20× objective and non-confocal mode.
Only RFP-positive nuclei were detected and counted.
The increase of RFP fluorescence, detected with the Operetta High Content Screening System (PerkinElmer), 20× objective and non-confocal mode, was used as read-out.
Briefly, the screening was divided in three parts called respectively 1) primary screening, 2) follow up and 3) validation. During the primary screening REDS3 cells were treated with 10 μM of every compound, and live cell imaging pictures were taken in order to assess their ability to induce RFP expression 24 hours later.

[11] = test system: c-MYC expression in WT-KBM7; assay: c-MYC expression by RT-PCR in WT-KBM7; format: cell-based, human; conditions: 1, 10 and 20 μM, 24 hours
Description: (c) Percentage of c-MYC expression in WT-KBM7 treated with the selected compounds, assessed by RT-PCR. 1, 10 and 20 μM of each compound were used to treat cells for 24 hours; DMSO was used as negative control and (S)-JQ1 as positive control. Three biological replicates were performed (mean±STD).
RNA extraction was performed with TRIzol Reagent (Life Technologies) according to the manufacturer's protocol and Reverse Transcription (RT) was performed using the High Capacity cDNA Reverse Transcription Kit (Applied Biosystems) following the standard protocol.
QPCR was performed using the Power SYBR Green Master mix (Invitrogen) as described in the manufacturer's protocol.
Real-time amplification results were normalized to the endogenous housekeeping genes Actin or GAPDH. The relative quantities were calculated using the comparative CT (Cycle Threshold) Method (ΔΔCT Method).

[12] = test system: THP1 cells; assay: Cell viability of THP1 cells, combination with (S)-JQ1; format: cell-based, human
[13] = test system: H23 cells; assay: Cell viability of H23 cells, combination with (S)-JQ1; format: cell-based
[14] = test system: THP1 cells; assay: Cell cycle assay in THP1 cells; conditions: 48 hours
Description: (e) Quantification of cells in S-phase by staining the nuclei with PI and analyzing DNA content by FACS. […] Three different biological replicates were performed and 30,000 cells were analysed each time (mean±STD).
For cell cycle analysis, cells were fixed with 70% ethanol for 24 hours, washed with PBS/0.1%-Tween and incubated with RNase for 20 minutes. Nuclei were stained with 5 μg/ml PI (propidium iodide, Sigma) for 10 minutes prior to FACS analysis (BD FACSCalibur Flow Cytometer).

[15] = test system: THP1 cells; assay: AnnexinV apoptosis assay in THP1 cells; conditions: 72 hours
Description: (f) Quantification of AnnexinV positive cells from immunofluorescence images. […] At least 3 biological replicates were performed and more than 1,500 cells were quantified for each point (mean±STD).
Apoptotic cells were detected using the Annexin V-FITC Apoptosis detection kit (Abcam) according to the manufacturer's instruction. Apoptosis quantification was performed with the Harmony software (PerkinElmer) for nuclei and cytoplasm detection and analysis, adapted for the nucleus diameter range and cell shape of the specific cell line used.

[16] = test system: KBM7 cells; assay: CellTiterGlo viability of control and TAF1 downregulated KBM7 cells; conditions: shRNA TAF1 vs control, 96 hours
[17] = test system: bromodomains of BRD4 (1), BRD4 (2), BRD9, CREBBP, EP300 and TAF1 (2); assay: BromoELECT bromodomain panel; format: binding; conditions: 10 μM
Description: as §3

- binding constant, TAF1 (2) ([3]; BromoKdELECT (FIG. 8b)): sub-micromolar binding constants
- Kd ([3]; BromoKdELECT assay (FIG. 4g)): 1.4 µM
- binding to TAF1 (2) ([3]; BromoScan/BromoELECT, 10 μM): high affinity
- binding to BRD4 [4]: only bound BRD4 very weakly
- binding constant, CREBBP ([5]; BromoKdELECT (FIG. 8b)): sub-micromolar binding constants
- binding to CREBBP ([5]; BromoScan/BromoELECT, 10 μM): high affinity
- binding constant, EP300 ([6]; BromoKdELECT (FIG. 8b)): sub-micromolar binding constants
- binding to EP300 ([6]; BromoScan, 10 μM): high affinity
- binding constant, BRD9 ([7]; BromoKdELECT (FIG. 8b)): sub-micromolar binding constants
- binding to BRD9 ([7]; BromoScan, 10 μM): high affinity
Structure (SMILES): Cn1cc(C(=O)Nc2ccc3c(c2)OCCO3)c2ccccc2c1=O [CeMMEC1]
- binding to the first bromodomain of BRD4 [1]: neither able to bind the first nor the second bromodomain of BRD4
- binding to the second bromodomain of BRD4 [2]: neither able to bind the first nor the second bromodomain of BRD4
- inhibition of kinases [8]: ≤ 60%
- displacement of tetra-acetylated H4 peptide from TAF1 binding site [9]: displaced a tetra-acetylated H4 peptide with good efficacy
- RFP expression in REDS3 cells in combination with (S)-JQ1 [10]: further boosted RFP expression beyond the increase in single treatments
- RFP expression in REDS3 cells [10]: expressed RFP detected by live cell imaging in a dose-dependent manner; also recorded: comparable induction of RFP expression in REDS3 cells
- c-MYC expression [11]: capable of reducing the expression of this oncogene in a dose-dependent manner
- cell viability, combination with (S)-JQ1 [12]: more efficiently impairing cell viability than the individual treatments
- synergy with (S)-JQ1 (Bliss independence test) [12]: confirmed the synergism
- cell viability, combination with (S)-JQ1 [13]: more efficiently impairing cell viability than the individual treatments
- synergy with (S)-JQ1 (Bliss independence test) [13]: confirmed the synergism
- number of cells in S-phase [14]: clear and dose-dependent decrease of the number of cells in S-phase
- apoptosis (AnnexinV staining) [15]: induced apoptosis
- cell viability with TAF1 downregulation [16]: impaired cell viability in TAF1 downregulated cells

Structure (SMILES): Cn1cc(C(=O)Nc2ccc3c(c2)OCCO3)c(=O)n(C)c1=O [Compound 32]
- binding to the tested bromodomain proteins [17]: bound neither of the tested bromodomain proteins
- RFP expression in REDS3 cells in combination with (S)-JQ1 [10]: The same effect was not achieved
- RFP expression in REDS3 cells [10]: nor did they induce RFP expression in REDS3 cells

Structure (SMILES): Cn1cc(C(=O)Nc2ccc3c(c2)OCCO3)c(=O)[nH]c1=O [Compound 35]
- binding to the tested bromodomain proteins [17]: bound neither of the tested bromodomain proteins
- RFP expression in REDS3 cells in combination with (S)-JQ1 [10]: The same effect was not achieved
- RFP expression in REDS3 cells [10]: nor did they induce RFP expression in REDS3 cells
